Patent publication US6448475B1, “Manipulation of tocopherol levels in transgenic plants by transformation with a synechocystis 2-methyl-6-phytylplastoquinol/2-methyl-6-solanylplastoquinol-9 methyltransferase” (The University and Community College System of Nevada, priority 1998, dated 2002)

How the values were obtained:
[1] = In vitro 2-methyl-6-phytylplastoquinol methyltransferase assay of E. coli expressed SLL0418; type: biochemical, Synechocystis; conditions: E. coli extract
Description: (§1) A second approach to characterizing the Synechocystis genes and proteins involved in tocopherol biosynthesis involved the expression and biochemical analysis of these genes in E. coli. The Synechocystis SLL0418 gene sequence was subcloned from pSLL0418-1 as a Nde1/Hind3 fragment into the Nde1 and Hind3 sites of the E. coli expression vector, pET30B. The resulting plasmid construct was designated p041798 and was transformed into the E. coli strain BL21(DE3)pLysS. Protein expression was induced with 1 mM isopropylthio-b-galactoside (IPTG) in the cells transformed with p041798 and cells transformed with the empty pET30B vector. Induced cultures were grown for 3 hours at 28° C. in a shaking incubator after which the cells were harvested by centrifugation at 8,000 g for 10 minutes at 4° C. and stored at […] The cell pellets were resuspended in 50 mM Tris-HCl pH 8.0, 5 mM DTT, 1 mM PMSF and homogenized with four 10 second burst with a sonicator. Triton X 100 was then added to a final concentration of 1% and the mixture was incubated on ice for 30 minutes. The insoluble material was then removed by centrifugation at 40,000 g for 30 minutes and the supernatant was saved for methyltransferase assays.
A mixture of 6 different isomers of methylphytylplastoquinone was synthesized as described by Henry et al. (1987) Biochem J 242: 367-373. […]

[2] = In vitro 2-methyl-6-solanylplastoquinol methyltransferase assay of E. coli expressed SLL0418; type: biochemical, Synechocystis; conditions: E. coli extract
Description: as §1
The 2-methyl-6-solanylplastoquinol substrate was purified from Iris bulbs. One hundred gm of iris bulbs were homogenized in 500 mL acetone. […]

Substance: 2-methyl-6-phytylplastoquinol/2-methyl-6-solanylplastoquinol-9 methyltransferase [SLL0418]
- methylation of 2-methyl-6-phytylplastoquinol to form 2,3-dimethylphytlyplastoquinol ([1]; result in words): able to methylate
- amount of 14C labeled 2,3-dimethyl-6-phytylplastoquinol product produced ([1]; substrate 2-methyl-6-phytylplastoquinol, [14C-methyl]-S-adenosylmethionine, 30 minutes, room temperature): 484 CPM
- methylation of 2-methyl-6-solanylplastoquinol to form 2,3-dimethylsolanylplastoquinol ([2]; result in words): able to methylate
- amount of 14C labeled 2,3-dimethylsolanylplastoquinol product produced ([2]; substrate 2-methyl-6-solanylplastoquinol, [14C-methyl]-S-adenosylmethionine, 30 minutes, room temperature): 174 CPM
